Data set [1] deals with HCT116-oxaliplatin resistant and A2780-cisplatin resistant cells. Briefly: 2D monolayer cytotoxicity in platinum-resistant cells. The format is cell-based. The conditions noted are these: compared with HO-3867, atovaquone, curcumin and stattic. Here is the method: MIT assay. Individual drug treatments and combinations were carried out as with the SRB assay. The MTT assay was carried out as previously (see Cytotoxicity studies sections) with the difference that it was completed in 96 h.

The next data set has as its system pStat3. The data set can be described thus: Immunohistochemistry of pStat3 in xenograft tissue sections. The format is in vivo, mice. To be noted: A549, A431, DU145 and HCT116-oxaliplatin resistant xenografts, single dose 30 mg/kg, 24 h. Here is the method:
Mice were treated as described in the survival experiments but were sacrificed 24 h post administration of the compound or vehicle, intraperitoneally.

The subject of data set [2] is cisplatin-produced DNA interstrand crosslinks. The data set can be described thus: Modified single cell gel electrophoresis (comet) assay. The format is cell-based. The method, then:
The following procedure for the modified single-cell gel electrophoresis (comet) assay [Hartley. J. M., et al. Drug-DNA Interact. Protoc. Methods Mol. Biol. 2010, 613, 267] was applied to measure DNA interstrand crosslinking (ICL) induced by platinum drug in DU145 and A549 cells. Exponentially growing cells were treated for 1 h with different concentrations of cisplatin and collected after 0, 9, 24 and 48 h. All procedures were carried out on ice. Cells were diluted to a final concentration of 2.5×10^4 cells/ml and irradiated with X-ray (15 Gy) in order to deliver a fixed number of random DNA strand breaks (except for the untreated unirradiated control). Cells were embedded in 1% agarose on a precoated microscope slide, and each sample was prepared in duplicate. […] Images were captured using an on-line CCD camera and analysed using the Komet Analysis software 4.02 (Andor Technology, Belfast, UK). […] 25 cells were analysed. The tail moment for each image was calculated as the product of the percentage of DNA in the comet tail and the distance between the means of the head and tail distributions (Olive P. L., et al, Radiat Res 122, 86). DNA ICL after drug treatment was expressed as the percentage decrease in tail moment compared with irradiated controls calculated by the formula: % Decrease in tail moment=[1−(TMdi−TMcu/Tci−TMcu)]×100 […]

For a further data set, the system named is nuclear Stat3. The data set can be described thus: Confocal microscopy of Stat3 localisation. The format is cell-based. To be noted: DU145, 5 μM, 5 h. The method, then: For Stat3, pStat3 staining, 2.5×10^4 cells/ml were plated on 13-mm glass cover slip (VWR) in 24 well plates, allowed to adhere and processed the next day. […] Cells were blocked in PBS 5% BSA for 1 h at ambient temperature. Respective proteins were identified by incubation for 4 h with anti-Stat3 and anti-pStat3 rabbit polyclonal antibodies (1:1000, Cell signalling) or anti-phospho-Histone H2A.X mouse monoclonal (1:500; Millipore) diluted in a PBS 1% BSA buffer. Cells were incubated with a secondary fluorescent conjugated antibody Alexa Fluor 488 (1:500; Life Technologies) for 2 h at RT. […]
Cell nuclei and protein levels were visualized by confocal microscopy (objective ×40, Leica TCS SP2). […] In the case of IE-8 detection only, the blue fluorescent agent was excited with a UV-laser (364 nm) and detected using the DAPI filter. PI was excited with the 488 line of an argon-ion laser and detected at 642 nm. The fluorescence of IE-8 was detected and imaged by z-stack acquisition using the Leica SP2 microscope software. […]
Confocal microscopy. […] In the case of 8 h detection only, the blue fluorescent agent was excited with a UV-laser (364 nm) and detected using the DAPI filter. PI was excited with the 488 line of an argon-ion laser and detected at 642 nm. The fluorescence of 8 h was detected and imaged by z-stack acquisition using the Leica SP2 microscope software. […]

Entries after “also recorded” stand apart in the source; their conditions may differ.

On to “3,5-Di(3,4,5-trimethoxybenzylidene)-1-phenylpiperidin-4-one [IE-8]”, for which, in data set [1], the “cytotoxicity relative to other Stat3 inhibitors” value is recorded as “more cytotoxic than the other tested inhibitors”.

With `COc1cc(/C=C2\CN(c3ccccc3)C/C(=C\c3cc(OC)c(OC)c(OC)c3)C2=O)cc(OC)c1OC` [IE-8, 3,5-Di(3,4,5-trimethoxybenzylidene)-1-phenylpiperidin-4-one], in the data set with pStat3, the “pStat3 levels in xenograft tissue sections” value is “marked and in many instances significant downregulation; also recorded: downregulation of the pStat3 levels in vivo, was achieved”. Also, the “persistence of DNA ICLs in combination treatment” value in data set [2] (DU145, IE-8 pretreatment then cisplatin 1 h) is reported as “up to 48 h”. In addition, the “unhooking (repair) of cisplatin-produced DNA ICLs” value in data set [2] (DU145 and A549 cells, IE-8 pretreatment overnight or 1 h before cisplatin) was “impairs the ‘unhooking’ of the cisplatin-produced ICLs”. For the same molecule, the “levels of nuclear Stat3” value with nuclear Stat3 is “the levels of nuclear Stat3 were decreased”.
